Results as given in US9234186B2, “Star-worm luciferase” (OLYMPUS CORPORATION, priority 2011, dated 2016).

Target: GL3 luciferase derived from P. pyralis (Photinus pyralis, UniProt P08659, K549A/L550V/N119G/N50D/S548I)
Type: biochemical
Details: read-out: Km for ATP; 0.1 M Tris-HCl pH 8.0; enzyme solution with 1 mM D-luciferin, 8 mM MgSO4

GL3 luciferase derived from P. pyralis, sequence (P08659 whole entry N50D/N119G/S548I/K549A/L550V): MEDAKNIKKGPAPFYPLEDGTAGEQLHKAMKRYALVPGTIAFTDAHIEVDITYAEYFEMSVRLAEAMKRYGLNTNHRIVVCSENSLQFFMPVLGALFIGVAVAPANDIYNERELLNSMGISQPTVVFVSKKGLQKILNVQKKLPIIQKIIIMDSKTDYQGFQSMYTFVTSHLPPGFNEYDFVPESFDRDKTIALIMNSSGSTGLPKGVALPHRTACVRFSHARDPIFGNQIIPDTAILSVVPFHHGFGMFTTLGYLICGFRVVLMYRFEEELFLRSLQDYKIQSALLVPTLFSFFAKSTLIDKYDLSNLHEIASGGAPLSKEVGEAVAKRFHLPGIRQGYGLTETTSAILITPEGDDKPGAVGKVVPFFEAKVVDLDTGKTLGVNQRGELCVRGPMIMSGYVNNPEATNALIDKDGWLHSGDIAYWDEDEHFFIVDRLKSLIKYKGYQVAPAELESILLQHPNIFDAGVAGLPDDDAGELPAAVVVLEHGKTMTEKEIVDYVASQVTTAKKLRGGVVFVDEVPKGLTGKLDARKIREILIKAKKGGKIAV

Compound `Nc1ncnc2c1ncn2[C@@H]1O[C@H](COP(=O)(O)OP(=O)(O)OP(=O)(O)O)[C@@H](O)[C@H]1O` [ATP, Adenosine triphosphate] has a Km of 64.3 µM.
